Test results: patent US20020115117A1, “ERbeta-mediated gene expression” (priority 2000, published 2002)
Where no end group is shown, it is not given here.

How the values were obtained:
DU145 cells [1] = assay: Cell growth of DU145 cells, trypan blue exclusion count; format: cell-based, human; details: for reduction in the cell numbers: 1 μM, 4 days, vs vehicle (absolute ethanol) control; for effect on cell growth: 4-day exposure, vs vehicle control
Protocol: FIGS. 2A-2D are graphs summarizing data on effects of antiestrogens and estrogens on cell growth of DU145 cells. Cells (5×10^3 cells per well) were plated in triplicate wells onto a 24-well plate. After 24 hours for cell attachment, cells were treated for 4 days with antiestrogens [(A) ICI and (B) 4OH-TAM] or estrogens [(C) 17β-estradiol and (D) DES] at various concentrations as indicated. Cells treated with vehicle (absolute ethanol) were used as control. The number of viable cells at the end of 4 days of treatment was determined by the trypan blue exclusion method. Three individual experiments were performed. (Columns, means; bars, S.D.; n=9; *, p<0.001 compared to control (shaded column).
(§1) Cells were seeded at a density of 5×10^3 per ml into 24-well plates (Falcon, Becton Dickinson Labware, Lincoln Park, N.J.) in a final volume of 1 ml culture medium with 5% charcoal-stripped FBS. Twenty-four hours following seeding, triplicate wells of cells were treated in with 1 μM, 10 μM and 100 μM of estradiol-17β (E2), diethylstilbestrol (DES), 4′-hydroxytamoxifen (4OH-TAM) or ICI 182,780 (ICI). E2, DES, and 4OH-TAM were purchased from Sigma Co. (St. Louis, Mo.) and ICI was a gift from Zeneca Pharmaceuticals (Macclesfield, United Kingdom). Estrogens and antiestrogens were dissolved in absolute ethanol (Sigma Co., St. Louis, Mo.) and added to the media daily. Cell cultures not treated with estrogenic compounds received absolute ethanol as a vehicle control. Total additive ethanol concentrations never exceeded 0.2% throughout the culture period. The cells were re-fed with freshly prepared medium every other day. At the end of a 4-day treatment period, cells in each well were trypsinized and cell count determined by direct counting using the Trypan blue exclusion method. All treatment experiments were repeated at least three times to generate statistically relevant data.

PC-3 cells = assay: Cell growth of PC-3 cells, trypan blue exclusion count; format: cell-based, human
Protocol: FIGS. 3A-3D are graphs summarizing data on effects of antiestrogens and estrogens on cell growth of PC-3 cells. Cell growth assay was described in […]. (A) ICI. (B) 4OH-TAM. (C) 17β-estradiol. (D) DES. Columns, means; bars, S.D.; n=9; * ,p<0.001; #, p<0.01; +, p<0.05; compared to control (shaded column).
as §1

DU145 cells [2] = assay: cDNA expression array of DU145 cells treated with ICI 182,780; format: cell-based, human; details: DU145, 12 hours
Protocol: cDNA array technology was used to identify genes whose expression is modulated by ICI 182,780 in DU145 cells. The DU-145 cells were treated for 12 hours with ICI 182,780, and total RNA was then isolated from treated cells and untreated controls. Following poly-(A)-RNA selection of these two population of total RNA, and DNase I digestion to remove contaminating DNA, the poly (A)-RNA pools were reversed-transcribed in the presence of P32 to produce radiolabeled cDNA probes. These radiolabeled cDNA probes were applied to an Atlas™ cDNA Expression Array (600 gene array, Clontech Laboratories, Inc, Palo Alto, Calif.) using the vendor's recommended protocol.

DU145 cells [3] = assay: ICI-induced DU145 cell growth inhibition with ERβ antisense, sense or mismatch ODN; format: cell-based, human; details: ICI 1 μM, 4 days, no ODN
Protocol: FIG. 4 is a graph summarizing data on reduction of ICI-induced inhibition of DU145 cell growth by ERβ antisense oligonucleotide (ODN). Cells were treated with ICI at 10^−6 M for 4 days in the presence of 2.5 μM antisense, sense or mismatch ODNs. Columns, means; bars, S.D.; n=16; *,p<0.001 compared to control without ODN treatment.
DU145 cells (5×10^3 cells per well) were plated in 24 well-plates (Falcon, Becton Dickinson Labware, Lincoln Park, N.J.). After allowing 24 hours for cell attachment, cell cultures were treated in triplicate with 1 μM ICI in the presence of 2.5 μM ERβ antisense, sense or mismatch ODNs for 4 days. The ERβ antisense ODN, an 18-mer, was designed to recognize the first translation start site on the ERβ mRNA and its immediate 5′flanking region (Table 2, below). The nucleotide sequence of sense ODN is complementary to those of ERβ antisense ODN (Table 2). Based on the sequence of ERβ antisense ODN, 5 nucleotides were scrambled to generate a mismatch ODN that retains the same GC ratio of the ERβ antisense ODN (Table 2). Both the sense and the mismatch ODNs served as controls for the antisense ODN. In all three ODNs, the first and the last 3 nucleotides were phosphorothioate-modified to increase their stability in cellulo. Number of viable cells in each well was determined by direct counting using the Trypan blue exclusion method after a 4-day treatment period. […]

PC-3 M cells = assay: Cell growth inhibition by Raloxifene and Resveratrol, PC-3 M; format: cell-based, human
Excerpt: (§2) Raloxifene® and Resveratrol® may also be active tumor suppressing agents utilizing the ERβ pathways. […] Treatment protocols and dosages used were similar to those described above.

DU145 = assay: Cell growth inhibition by Raloxifene and Resveratrol, DU145; format: cell-based, human
Excerpt: as §2

ERβ = assay: Competitive immunohistochemistry with GC-17 antibody; format: cell-based, human; details: sections of DU145 and LNCaP cells, 400 μg/ml or 40 μg/ml peptide
Excerpt: These cells were used to compliment and confirm that the GC-17 antibody reagent specifically detected ERβ but not ERα by immunohistochemical staining. Using the GC-17 antibody and the anti-ERα antibody (NCL-ER-6F11, Novacastra, Newcastle, UK) at the same dilutions as for tissue sections (see below), we carried out immunohistochemical studies on 10% formalin-fixed cytospins of DU145 and LNCaP cells that had been routinely processed, embedded in paraffin, sectioned at 5 μm and mounted on SuperFrost Plus™ slides (VWF Scientific, West Chester, Pa.).
Peptide competition studies were performed at the immunohistochemical level that approximated the conditions used in the ELISA assays described above. GC-17 antibody, at a dilution of 1:6000, was incubated with the immunizing ERβ peptide at concentrations of 400 μg and 40 μg at room temperature for 1 hour. In addition, competitive studies were conducted using ERα recombinant peptide (400 and 40 μg, Affinity Bioreagents Inc., Golden, Colo.) on DU145 cells. Incubation conditions and time were identical to those used for the ERβ peptide competition studies. Deparaffinized sections of DU145 and LNCaP cells and human prostate tissue were then incubated with these mixtures at room temperature for 1 hour. […]

recombinant ERβ protein = assay: Competitive inhibition ELISA of GC-17 antibody; format: binding, human; details: peptide pre-incubated with GC-17 (1:6000); ERβC 4 mg-4 μg/ml, ERβN 4 mg/ml
Protocol: FIG. 5 is a graphic representation of the results of a competitive ELISA assay and illustrates the concentration-dependent competition of the immunizing peptide (ERβC) with a GC-17 antibody. […] The GC-17 antibodies, bound to recombinant ER-β protein on ELISA plates, were recognized by alkaline phosphatase conjugated anti-rabbit IgG antibodies. The whole complexes were visualized by incubation with p-nitrophenyl phosphate. The optical density at 405 nm was measured. The entire assay was done 4 times. The columns represent the standard deviation. w/o=GC-17 preincubated without peptide antigen.
The wells of an ELISA plate, PRO-BIND™ (Becton-Dickenson Labware, Franklin, N.J.) were coated with a recombinant protein composed of the entire ERβ sequence (PanVera, Madison, Wis.) at a concentration of 5 μg/ml. The GC17 antibody (1:6000) was then pre-incubated with the immunizing peptide at concentrations ranging from 4 mg-4 μg/ml at room temperature for 30 minutes. In addition, 4 mg of a control peptide encompassing sequences in the N-terminal region of ER-β (Research Genetics) was preincubated with the GC 17 antibody (1:6000) at room temperature for 1 hour. […] Results were quantified by optical density using the Microplate reader 550 (Bio-Rad, Richmond, Calif.). […]

CC/C(=C(\c1ccccc1)c1ccc(OCCN(C)C)cc1)c1ccc(O)cc1 [4OH-TAM, 4′-hydroxytamoxifen]
reduction in the cell numbers (DU145 cells [1]): around 25%

CC/C(=C(/CC)c1ccc(O)cc1)c1ccc(O)cc1 [DES, diethylstilbestrol]
effect on cell growth (DU145 cells [1]): did not affect cell growth | effect on cell growth (PC-3 cells; various concentrations): did not elicit statistically significant cell growth inhibition

C[C@]12CC[C@@H]3c4ccc(O)cc4CC[C@H]3[C@@H]1CC[C@@H]2O [E2, estradiol-17β]
effect on cell growth (DU145 cells [1]): did not affect cell growth | effect on cell growth (PC-3 cells; 1 μM, p<0.05): induced inhibition of cell growth | effect on cell growth (PC-3 cells; 10 μM, p<0.01): induced inhibition of cell growth

C[C@]12CC[C@@H]3c4ccc(O)cc4C[C@@H](CCCCCCCCC[S+]([O-])CCCC(F)(F)C(F)(F)F)[C@H]3[C@@H]1CC[C@@H]2O (stereo partly drawn) [ICI 182,780]
reduction in the cell numbers (DU145 cells [1]): 40% | effect on cell growth (DU145 cells [1]): dose-dependent inhibition of cell numbers | Fold difference relative to control (DU145 cells [2]; gene: 5-hydroxytryptamine A1 receptor (E4h)): +6.6 | Fold difference relative to control (DU145 cells [2]; gene: BCL-2 related A1 protein (BFL-1)(C4H)): +9.6 | Fold difference relative to control (DU145 cells [2]; gene: Embryonic growth/differentiation factor (GDF-1)): +4.5 | Fold difference relative to control (DU145 cells [2]; gene: IFN-α/β receptor): +2.7 | Fold difference relative to control (DU145 cells [2]; gene: Interleukin-12 alpha chain (IL-12)(F6K)): +10.6 | Fold difference relative to control (DU145 cells [2]; gene: RYK receptor-like tyrosine kinase (E2c)): +3.6 | Fold difference relative to control (DU145 cells [2]; gene: TL1309): +2.7 | reduction in cell number (DU145 cells [3]): 40%

O=C(c1ccc(OCCN2CCCCC2)cc1)c1c(-c2ccc(O)cc2)sc2cc(O)ccc12 [Raloxifene]
efficacy compared (PC-3 M cells): markedly better than that of Resveratrol and ICI | inhibition of cell growth (PC-3 M cells): marked inhibition of cell growth | efficacy compared (DU145): markedly better than that of Resveratrol and ICI | inhibition of cell growth (DU145): marked inhibition of cell growth

Oc1ccc(C=Cc2cc(O)cc(O)c2)cc1 [Resveratrol]
inhibition of cell growth (PC-3 M cells): marked inhibition of cell growth | inhibition of cell growth (DU145): marked inhibition of cell growth

ERβC: immunizing peptide, C-terminus of ERβ (amino acids 449-465), 4-branch Multiple Antigenic Peptide (QQQSMRLANLLMLLSHV; also: 4-branch Multiple Antigenic Peptide)
effect on nuclear staining by GC-17 (ERβ): totally abolished nuclear staining | suppression of GC-17 binding to the recombinant protein (recombinant ERβ protein): successfully suppressed binding
